Source: US8754094B2, “Methods for heat shock protein dependent cancer treatment” (The Research Foundation of State University of New York, priority 2007, dated 2014)
Entries after “also recorded” stand apart in the source; their conditions may differ. Where two headings read alike, the source gives them in different places.

What was measured:
XBP-1 mRNA splicing = test: RT-PCR analysis of XBP-1 mRNA splicing (UPR) in NCI-H929; format: cell-based, human
Protocol: (§1) Total RNA was prepared from NCI-H929 and HEK293 cells using TRIzol reagent (Invitrogen, Carlsbad, Calif.) following exposure to MAL3-101, MG-132, and 17-AAG alone and in combination at the indicated time points. Tunicamycin was used at varying concentrations.
(§2) Total RNAs were used for the first-strand synthesis with the Superscript reverse transcriptase (Invitrogen, Carlsbad, Calif.). PCR primers (5′-[…]-3′ [Seq. ID No. 1] and 5′-[…]-3′ [Seq. ID No. 2]) encompassing the missing sequences in XPB-1s were used for the PCR amplification with AmpliTaq Gold polymerase (Applied Biosystem, Foster City, Calif.) with a probe set spanning the spliced-out region. PCR products were separated by electrophoresis on a 3% agarose gel (Agarose-1000, Invitrogen) and visualized them by ethidium bromide staining to assess the degree of X-box binding protein-1 unspliced (XBP-1u, ˜280 bp) and spliced (XBP-1s, ˜265 bp) mRNA.
Unspliced (XBP-1u, 285 bp) and spliced (XBP-1s, 259 bp) XBP-1 mRNA levels of treated NCI-H929 were determined by PCR amplification of total RNA that was reverse transcribed by SuperScript Reverse Transcriptase (Invitrogen, Carlsbad, Calif.). PCR primers (5′-[…]-3′ [Seq. ID No. 1] and 5′-[…]-3′ [Seq. ID No. 2]), which flank the 26-nt intron of XBP1 mRNA, were used for PCR amplification with Ex Taq polymerase (Takara Bio, Shiga, Japan).

XBP-1 splicing = test: RT-PCR analysis of XBP-1 splicing in HEK293; format: cell-based; conditions: HEK293, 6 hours
Protocol: as §1, §2

BiP = test: Levels of ER lumenal chaperone BiP in NCI-H929; format: cell-based, human; conditions: NCI-H929, data not shown
NCI-H929 = test: cells
Protocol: For cell survival assays, cells were plated in 96-well culture plates (BD Biosciences, San Jose, Calif.), 100,000 cells/well with 200 μl, of culture media. The effect of the drugs on cell survival was assessed, for example, by measuring 3-(4,5-dimethylthiazol-2-yl)-5-(3-carboxymethoxyphenyl)-2-(4-sulphophenyl)-2H-tetrazolium, inner salt (MTS) (Promega, Madison, Wis.) dye absorbance of viable cells by adding 40 μL of 5 mg/mL MTS to each well for the last 4 hours of drug exposure. Additional wells containing cells only (untreated control) or medium only (background medium control) were used as controls. Absorbance at 490 nm (A490) was measured using a spectrophotometer (Dynatech Laboratories, Chantilly, Va.). Viability was estimated according to the following formula: […]
Briefly, the cellular fraction affected (Fa) was calculated based on an MTS assay after exposing cells to the drugs alone or in combination at a given dose compared to untreated cells, using the formula: Fa=100−% Viable Cells. Fa values were entered into Calcusyn software (Biosoft, Ferguson, Mo. and Cambridge, United Kingdom) to obtain CI values. CI values <1.0 indicated a synergistic effect of the drugs used in combination. For Inhibitory Concentration, or IC, calculations, dose-effect curves for MAL3-101, MG-132, 17-AAG, and their combinations were used to interpolate the median inhibitory concentration that caused 30% (IC30), 50% (IC50), and 70% (IC70) reductions in the % viable cells compared to untreated cells.
Cells (1×10^5) were plated in 96-well microtiter plates (Costar, Cambridge, Mass.) in 100 μL, of growth medium and exposed for indicated periods to various concentrations of compounds or their combinations. Control cells were cultured in DMSO. All studies were performed in triplicate and repeated at least three times independently. Survival was measured by an MTS assay (Promega, Madison, Wis.) as per the manufacturer's directions. The absorbance (A450) ratio of treated to untreated cells, after the subtraction of background absorbance, was multiplied by 100 to obtain percent cell survival. Cell death was measured by trypan blue dye exclusion in identically plated cultures.
DMSO-treated cultures were compared to drug-treated cultures by Student's t tests or by Dunnett's post-hoc test following significant repeated-measures one-way analysis of variance. All tests were two-tailed, and statistical significance was set at P≦0.05. Isobologram analysis was performed to derive combination index (CI) values based upon the Chou-Talalay method using CalcuSyn software (Biosoft, Ferguson, Mo. and Cambridge, United Kingdom) as described in L. Catley, E. Weisberg, T. Kiziltepe, Y. T. Tai, T. Hideshima, P. Neri, P. Tassone, P. Atadja, D. Chauhan, N. C. Munshi, K. C. Anderson, Aggresome induction by proteasome inhibitor Bortezomib and {alpha}-tubulin hyperacetylation by tubulin deacetylase (TDAC) inhibitor LBH589 are synergistic in myeloma cells, Blood (2006), which is incorporated herein by reference.

Hsp70 = Hsp70 modulation

tunicamycin [reference compound]
XBP-1 mRNA splicing, positive control (XBP-1 mRNA splicing; NCI-H929, 5 μg/ml, 4 h): induced XBP-1 mRNA splicing | XBP-1 splicing in HEK293 (XBP-1 splicing): Stronger XBP-1 splicing was observed

C=CCNC1=C2C[C@@H](C)C[C@H](OC)[C@H](O)[C@@H](C)/C=C(\C)[C@H](OC(N)=O)[C@@H](OC)/C=C\C=C(/C)C(=O)NC(=CC1=O)C2=O [17-AAG, 17-allylamino-17-demethoxygeldanamycin]
levels of BiP (BiP): did not change | XBP-1 mRNA splicing at early time points (XBP-1 mRNA splicing; NCI-H929, early time points (4 h), concentrations that gave synergistic cytotoxicity): no XBP-1 mRNA splicing was observed | IC50 (NCI-H929; read-out: IC50 (reduction of % viable cells), single agent, NCI-H929, 40 h exposure, MTS assay, agent alone): 400 nM | IC50 (NCI-H929; read-out: IC50 of 17-AAG in combination with 5 μM MAL3-101, NCI-H929, MTS, plus 5 μM MAL3-101): 300 nM | IC50 (NCI-H929; read-out: IC50 of 17-AAG in combination with 10 μM MAL3-101, NCI-H929, 40 h, MTS, plus 10 μM MAL3-101): 30 nM

CC(C)(C)NC(=O)C(c1ccc(I)cc1)N(CCN1CCOCC1)C(=O)CCCNC(=O)c1ccccc1 (stereo not drawn) [MAL3-51]
potency as Hsp70 modulator relative to MAL3-101 (Hsp70): less potent Hsp70 antagonist than MAL3-101; also recorded: substantially less potent Hsp70 modulator | response of percent viability (NCI-H929; NCI-H929, 10 or 20 μM, 40 h, MTS): no response
